Earlier results, collected in patent US12247053B2 (priority 2018, dated 2025).

Tested on: American isolates of H3N2

Row | SMILES | measured resistance
1 | NC12CC3CC(CC(C3)C1)C2 [amantadine] | 91%
2 | CC(N)C12CC3CC(CC(C3)C1)C2 (centres unmarked) [rimantadine] | 91%
